Data on 19 compounds can be found in US5158770A, “Aqueous solution containing ginkgo leaf extract” (Freund Industrial Co., Ltd., priority 1989, dated 1992).

The nature of data set [1]: Solubility Test-1: dissolution of ginkgo leaf extract dry powder in aqueous solution of the compound. The data set is classed as physicochemical. The arrangement: key: .largecircle.: dissolved to form a transparent aqueous solution; X: insoluble. The settings on record: 5 g compound in 100 ml water at 20° C., 10 g ginkgo leaf extract, shaken 10 minutes. The method, then:
To each aqueous solution was added 10 g of dry powder of the ginkgo leaf extract and shaken for 10 minutes to observe the dissolution state.

Data set [2] is described as follows: Solubility of the organic/inorganic compound in water.
A short description of the next data set: physchem. Conditions: water.

Converted amounts (≈) assume the structure as drawn. Counter-ions that a name gives are not always drawn.

With `CSCC[C@H](N)C(=O)O` [Methionine], in data set [1], the Dissolution state entry is recorded as “X”. In addition, the concentration in solution in data set [2] (solubility) was 33 mg/mL (≈ 221 mM). As for `CC(C)(CO)[C@@H](O)C(=O)NCCC(=O)O` [Calcium pantothenate], the Dissolution state result in data set [1] is recorded as “.largecircle”. Regarding `Cc1ncc(CO)c(CO)c1O.Cl` [Pyridoxine hydrochloride], the solubility (usually how much of the substance goes into solution per volume) in “physchem” came to 190 mg/mL. Also, the Dissolution state result in data set [1] is listed as “.largecircle”. As for `N#CN=C(N)N` [Dicyandiamide], the solubility in “physchem” amounted to 32 mg/mL (≈ 381 mM). The Dissolution state result in data set [1] is reported as “X”. On to `OC[C@@H](O)[C@@H](O)[C@H](O)[C@@H](O)CO` [Sorbitol], for which, in data set [1], the Dissolution state result is given as “X”. The compound further showed a solubility in data set [2] of 720 mg/mL (≈ 3950 mM). In turn, `CC(C)[C@H](N)C(=O)O` [Valine] yielded a solubility in “physchem” of 85 mg/mL (≈ 726 mM). As to `O=C(O)c1cccnc1` [Nicotinic acid], the Dissolution state entry in data set [1] is listed as “X”. In data set [2], the solubility amounted to 16 mg/mL (≈ 130 mM). In the case of `C[C@@H](O)[C@H](N)C(=O)O` [Threonine], in data set [1], the Dissolution state entry is on record as “.largecircle”. For the compound `NC(N)=O` [Urea], in data set [1], the Dissolution state result is on record as “.largecircle”. In turn, `Cl.N[C@@H](Cc1c[nH]cn1)C(=O)O` [Histidine hydrochloride] yielded a solubility in data set [2] of 420 mg/mL.

Regarding `CCCCCCCCCCCC[N+](C)(C)C.[Cl-]` [Lauryltrimethylammonium chloride, Lauryltrimethyl-ammonium chloride], in the data set “physchem”, the solubility worked out at 760 mg/mL. In data set [1], the Dissolution state result is reported as “.largecircle”. With `OCC(O)CO` [Glycerin], the Dissolution state entry in data set [1] is recorded as “X”.

Turning to `Cc1ncc(C[n+]2csc(CCO)c2C)c(N)n1` [Thiamine hydrochloride], the Dissolution state entry in data set [1] is recorded as “.largecircle”. The solubility in data set [2] was found to be 1000 mg/mL. Consider `NC(=O)c1cccnc1` [Nicotinic acid amide], for which the Dissolution state result in data set [1] is recorded as “.largecircle”. Also, the solubility in data set [2] turned out to be 500 mg/mL (≈ 4090 mM). On to `Oc1cccc(O)c1O` [Pyrogallol], for which, in “physchem”, the concentration in solution (solubility) came to 625 mg/mL (≈ 4960 mM). On the same count and under the same terms, next, `NCCS(=O)(=O)O` [Taurine]: 90 mg/mL (≈ 719 mM). `OC[C@H]1O[C@@](CO)(O[C@H]2O[C@H](CO)[C@@H](O)[C@H](O)[C@H]2O)[C@@H](O)[C@@H]1O` [Sucrose] registered a solubility in the data set “physchem” of 664 mg/mL (≈ 1940 mM). Besides, the Dissolution state result in data set [1] is “X”.

For the compound `Cc1cc2nc3c(=O)[nH]c(=O)nc-3n(C[C@H](O)[C@H](O)[C@H](O)CO)c2cc1C` [Riboflavin], the Dissolution state entry in data set [1] was “X”. For the same compound, the solubility in data set [2] was determined as 0.1 mg/mL (≈ 0.266 mM). `CC[C@H](C)[C@H](N)C(=O)O` [Isoleucine] had a solubility in “physchem” of 38 mg/mL (≈ 290 mM).
